pIC50: −log10 of the molar value.
Target: human truncated cGAS enzyme (147-522 human cGAS) (Homo sapiens (Human), UniProt Q8N884)
Experiment: Quantification of cGAS protein inhibition (cGAMP formation measured by LC-MS/MS)
Type: biochemical
Conditions: reported for the potential mixture in solution of co-existing tautomers and/or racemates
In short: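 Human cGAS 147-522 (30 nM) in Tris pH 7.5, NaCl, MgCl2, ZnCl2, Tween 20, started with 5 μM ISD 45 bp dsDNA, 0.5 mM GTP and 0.5 mM ATP. Incubated 1 h at room temperature, then quenched with acetonitrile/TFA. cGAMP quantified by LC-MS/MS against a labelled cGAMP internal standard; IC50 from ratio versus compound concentration.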

Chain of human truncated cGAS enzyme (147-522 human cGAS) (Q8N884 147-522): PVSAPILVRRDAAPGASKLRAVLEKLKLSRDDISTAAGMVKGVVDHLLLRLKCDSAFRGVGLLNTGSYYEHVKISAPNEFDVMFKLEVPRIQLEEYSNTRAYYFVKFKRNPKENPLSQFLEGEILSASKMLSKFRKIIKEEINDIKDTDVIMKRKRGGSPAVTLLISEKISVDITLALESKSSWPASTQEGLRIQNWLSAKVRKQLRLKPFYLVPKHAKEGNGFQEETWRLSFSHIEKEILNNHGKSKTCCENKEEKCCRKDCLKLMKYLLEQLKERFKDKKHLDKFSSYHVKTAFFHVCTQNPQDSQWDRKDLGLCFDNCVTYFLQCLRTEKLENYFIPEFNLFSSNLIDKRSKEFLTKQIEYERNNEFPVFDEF

| Compound | pIC50 |
| --- | --- |
| COc1cc2c(-n3ccnc3)c(-c3nnc(C(=O)N(C)C)[nH]3)n(C)c2c(F)c1F [Example 104, 5-(6,7-difluoro-3-(1H-imidazol-1-yl)-5-methoxy-1-methyl-1H-indol-2-yl)-N,N-dimethyl-4H-1,2,4-triazole-3-carboxamide] | 6.50 |
| FC(F)(F)c1nnc(-c2[nH]c3cc(Cl)c(Cl)cc3c2-n2ccnc2)[nH]1 [Example 105, 5,6-dichloro-3-(1H-imidazol-1-yl)-2-(5-(trifluoromethyl)-4H-1,2,4-triazol-3-yl)-1H-indole] | 6.25 |
| Cn1c(-c2nnc(C(F)(F)F)[nH]2)c(-n2ccnc2)c2cc(Cl)c(Cl)cc21 [Example 108, 5,6-dichloro-3-(1H-imidazol-1-yl)-1-methyl-2-(5-(trifluoromethyl)-4H-1,2,4-triazol-3-yl)-1H-indole] | 6.55 |
| N#Cc1c(Cl)ccc2c(-n3ccnc3)c(-c3nnc(C(F)(F)F)[nH]3)[nH]c12 [Example 110, 6-chloro-3-(1H-imidazol-1-yl)-2-(5-(trifluoromethyl)-4H-1,2,4-triazol-3-yl)-1H-indole-7-carbonitrile] | 6.65 |
| Cn1c(-c2nnc(C(F)(F)F)[nH]2)c(-n2ccnc2)c2ccc(Cl)c(C#N)c21 [Example 111, 6-chloro-3-(1H-imidazol-1-yl)-1-methyl-2-(5-(trifluoromethyl)-4H-1,2,4-triazol-3-yl)-1H-indole-7-carbonitrile] | 6.70 |
| FC(F)Oc1cc2c(-n3ccnc3)c(-c3nnc(C(F)(F)F)[nH]3)[nH]c2cc1Cl [Example 112, 6-chloro-5-(difluoromethoxy)-3-(1H-imidazol-1-yl)-2-(5-(trifluoromethyl)-4H-1,2,4-triazol-3-yl)-1H-indole] | 6.18 |
| COc1cc2c(-n3ccnc3)c(-c3nnc(CCO)[nH]3)n(C)c2c(C#N)c1Cl [Example 118, 6-chloro-2-(5-(2-hydroxyethyl)-4H-1,2,4-triazol-3-yl)-3-(1H-imidazol-1-yl)-5-methoxy-1-methyl-1H-indole-7-carbonitrile] | 6.54 |
| COc1cc2c(-n3ccnc3)c(-c3nnc(CCO)[nH]3)n(C)c2cc1Cl [Example 119, 2-(5-(6-chloro-3-(1H-imidazol-1-yl)-5-methoxy-1-methyl-1H-indol-2-yl)-4H-1,2,4-triazol-3-yl)ethan-1-ol] | 6.00 |
| CN[C@@H](COC)c1nnc(-c2c(-n3ccnc3)c3cc(OC)c(Cl)c(F)c3n2C)[nH]1 [Example 125a, (R)-1-(5-(6-chloro-7-fluoro-3-(1H-imidazol-1-yl)-5-methoxy-1-methyl-1H-indol-2-yl)-4H-1,2,4-triazol-3-yl)-2-methoxy-N-methylethan-1-amine] | 6.74 |
| CN[C@H](COC)c1nnc(-c2c(-n3ccnc3)c3cc(OC)c(Cl)c(F)c3n2C)[nH]1 [Example 125b, (S)-1-(5-(6-chloro-7-fluoro-3-(1H-imidazol-1-yl)-5-methoxy-1-methyl-1H-indol-2-yl)-4H-1,2,4-triazol-3-yl)-2-methoxy-N-methylethan-1-amine] | 6.74 |
| COCC(c1nnc(-c2c(-n3ccnc3)c3cc(OC)c(Cl)c(F)c3n2C)[nH]1)N1CCOCC1 (stereo not drawn) [Example 126, 4-(1-(5-(6-chloro-7-fluoro-3-(1H-imidazol-1-yl)-5-methoxy-1-methyl-1H-indol-2-yl)-4H-1,2,4-triazol-3-yl)-2-methoxyethyl)morpholine] | 6.39 |
| COCC(c1nnc(-c2c(-n3ccnc3)c3cc(OC)c(Cl)c(F)c3n2C)[nH]1)N1CCC1 (stereo not drawn) [Example 127, 2-(5-(1-(azetidin-1-yl)-2-methoxyethyl)-4H-1,2,4-triazol-3-yl)-6-chloro-7-fluoro-3-(1H-imidazol-1-yl)-5-methoxy-1-methyl-1H-indole] | 6.31 |
| COCCN(C)C(C)c1nnc(-c2c(-n3ccnc3)c3cc(OC)c(Cl)c(F)c3n2C)[nH]1 (stereo not drawn) [Example 128, 1-(5-(6-chloro-7-fluoro-3-(1H-imidazol-1-yl)-5-methoxy-1-methyl-1H-indol-2-yl)-4H-1,2,4-triazol-3-yl)-N-(2-methoxyethyl)-N-methylethan-1-amine] | 6.34 |
| COCCNC(C)c1nnc(-c2c(-n3ccnc3)c3cc(OC)c(Cl)c(F)c3n2C)[nH]1 (stereo not drawn) [Example 129, 1-(5-(6-chloro-7-fluoro-3-(1H-imidazol-1-yl)-5-methoxy-1-methyl-1H-indol-2-yl)-4H-1,2,4-triazol-3-yl)-N-(2-methoxyethyl)ethan-1-amine] | 6.12 |
| COc1cc2c(-n3ccnc3)c(-c3nnc(C(C)N4CC5(COC5)C4)[nH]3)n(C)c2c(F)c1Cl (stereo not drawn) [Example 130, 6-(1-(5-(6-chloro-7-fluoro-3-(1H-imidazol-1-yl)-5-methoxy-1-methyl-1H-indol-2-yl)-4H-1,2,4-triazol-3-yl)ethyl)-2-oxa-6-azaspiro[3.3]heptane] | 6.57 |

More lines, now with the values ahead:

| pIC50 | Compound |
| --- | --- |
| 6.97 | COc1cc2c(-n3ccnc3)c(-c3nnc(C(C)=O)[nH]3)n(C)c2c(F)c1Cl [Example 102, 1-(5-(6-chloro-7-fluoro-3-(1H-imidazol-1-yl)-5-methoxy-1-methyl-1H-indol-2-yl)-4H-1,2,4-triazol-3-yl)ethan-1-one] |
| 6.77 | COc1cc2c(-n3ccnc3)c(-c3nnc(C(=O)N(C)C)[nH]3)n(C)c2c(C#N)c1Cl [Example 103, 5-(6-chloro-7-cyano-3-(1H-imidazol-1-yl)-5-methoxy-1-methyl-1H-indol-2-yl)-N,N-dimethyl-4H-1,2,4-triazole-3-carboxamide] |
| 7.02 | FC(F)(F)c1nnc(-c2[nH]c3c(Cl)c(Cl)ccc3c2-n2ccnc2)[nH]1 [Example 106, 6,7-dichloro-3-(1H-imidazol-1-yl)-2-(5-(trifluoromethyl)-4H-1,2,4-triazol-3-yl)-1H-indole] |
| 7.10 | COc1cc2c(-n3ccnc3)c(-c3nnc(C(F)(F)F)[nH]3)[nH]c2cc1Cl [Example 107, 6-chloro-3-(1H-imidazol-1-yl)-5-methoxy-2-(5-(trifluoromethyl)-4H-1,2,4-triazol-3-yl)-1H-indole] |
| 6.85 | COc1cc2c(-n3ccnc3)c(-c3nnc(C(F)(F)F)[nH]3)n(C)c2cc1Cl [Example 114, 6-chloro-3-(1H-imidazol-1-yl)-5-methoxy-1-methyl-2-(5-(trifluoromethyl)-4H-1,2,4-triazol-3-yl)-1H-indole] |
| 6.99 | COc1cc2c(-n3ccnc3)c(-c3nnc(C(=O)N(C)C)[nH]3)n(C)c2cc1Cl [Example 116, 5-(6-chloro-3-(1H-imidazol-1-yl)-5-methoxy-1-methyl-1H-indol-2-yl)-N,N-dimethyl-4H-1,2,4-triazole-3-carboxamide] |
| 6.77 | Cn1c(-c2nnc(CCO)[nH]2)c(-n2ccnc2)c2cc(O)c(Cl)c(C#N)c21 [Example 117, 6-chloro-5-hydroxy-2-(5-(2-hydroxyethyl)-4H-1,2,4-triazol-3-yl)-3-(1H-imidazol-1-yl)-1-methyl-1H-indole-7-carbonitrile] |
| 7.10 | COc1cc2c(-n3ccnc3)c(-c3nnc(C(C)N4CCOCC4)[nH]3)n(C)c2c(F)c1Cl (stereo not drawn) [Example 121, 4-(1-(5-(6-chloro-7-fluoro-3-(1H-imidazol-1-yl)-5-methoxy-1-methyl-1H-indol-2-yl)-4H-1,2,4-triazol-3-yl)ethyl)morpholine] |
| 6.75 | COc1cc2c(-n3ccnc3)c(-c3nnc(C(C)N(C)C)[nH]3)n(C)c2c(F)c1Cl (stereo not drawn) [Example 122, 1-(5-(6-chloro-7-fluoro-3-(1H-imidazol-1-yl)-5-methoxy-1-methyl-1H-indol-2-yl)-4H-1,2,4-triazol-3-yl)-N,N-dimethylethan-1-amine] |
| 6.92 | CNC(C)c1nnc(-c2c(-n3ccnc3)c3cc(OC)c(Cl)c(F)c3n2C)[nH]1 (stereo not drawn) [Example 123, 1-(5-(6-chloro-7-fluoro-3-(1H-imidazol-1-yl)-5-methoxy-1-methyl-1H-indol-2-yl)-4H-1,2,4-triazol-3-yl)-N-methylethan-1-amine] |
| 6.92 | COC[C@@H](c1nnc(-c2c(-n3ccnc3)c3cc(OC)c(Cl)c(F)c3n2C)[nH]1)N(C)C [Example 124a, (R)-1-(5-(6-chloro-7-fluoro-3-(1H-imidazol-1-yl)-5-methoxy-1-methyl-1H-indol-2-yl)-4H-1,2,4-triazol-3-yl)-2-methoxy-N,N-dimethylethan-1-amine] |
| 6.85 | COC[C@H](c1nnc(-c2c(-n3ccnc3)c3cc(OC)c(Cl)c(F)c3n2C)[nH]1)N(C)C [Example 124b, (S)-1-(5-(6-chloro-7-fluoro-3-(1H-imidazol-1-yl)-5-methoxy-1-methyl-1H-indol-2-yl)-4H-1,2,4-triazol-3-yl)-2-methoxy-N,N-dimethylethan-1-amine] |

Source: US12404261B2, “Compounds and compositions for treating conditions associated with cGAS” (Novartis AG, priority 2020, dated 2025)
